Experimental data taken from patent US20260034135A1, “USE OF N6-BENZYLAMINOPURINE AS AN APPETITE SUPPRESSANT” (THE GOVERNING COUNCIL OF THE UNIVERSITY OF TORONTO, priority 2022, published 2026).

Columns and labels:
[1] = BAP in the drinking water in CD-1 mice: body weight and water intake; type: in vivo
Experimental: All protocols using mice were approved by the University Animal Care Committee of the University of Toronto and were performed in accordance with the Canadian Council on Animal Care. Animal experiments were performed in three separate animal facilities: Medical Sciences Building (MSB), Centre for Cellular and Biomolecular Research (CCBR) and the Biological Sciences Facility (BSF) due to ongoing construction and housing changes. Facilities and dates are indicated in each experimental cohort. N6-benzylaminopurine (BAP; also called N6-benzyladenine) was obtained from Sigma (B3408, cell culture grade in powder form; CAS number 1214-39-7). Male and female CD-1 mice aged 6-7 weeks were acquired from Charles Rivers and acclimated on a chow diet for one week prior to experimentation. Mice were then weight-matched and placed on either a 60% high fat diet (HFD) or sucrose-matched control diet for 4 weeks (from Research Diets: 60% HFD D12492 and the sucrose-matched control diet […]). After 3 weeks on the diet, mice were acclimated for one week to the drinking apparatus, a 50 mL canonical tube with a drinking tube. After 4 weeks on the diet, the mice were again weight-matched and randomly assigned to either the control or BAP group. […] The average dosages achieved using this method are as follows: male HFD (200 mg/kg/day), male control (157 mg/kg/day), female HFD (189 mg/kg/day), and female control (129.9 mg/kg/day). The mice were exposed continuously to the solutions for a total of 33 days. One week prior to the end of the experiment (day 28), the mice were fasted for 4 hr and underwent intraperitoneal insulin tolerance testing (ITT). After 33 days, the mice were sacrificed, and their tissues were collected. RNA was isolated from the collected hypothalamic and used to quantify gene expression via qRT-PCR.

[2] = system: mHypoE-38 cell line; test: Gene expression by qRT-PCR in mHypoE-38 hypothalamic cell line; type: cell-based, mouse; conditions: 100 μM BAP, 16 hr
Experimental: Hypothalamic neurons from embryonic and adult mice were previously immortalized to generate the clonal cell lines mHypoE-46, mHypoE-44, mHypoE-41, mHypoE-38, mHypoA-59, a FAC-sorted POMC/GFP mouse-derived cell line, mHypoA-POMC/GFP-2, and a mixed culture mHypoA-Bmal1-WT/F cell line (6, 13, 14). The mHypoE-46, mHypoE-44, and mHypoA-Bmal1-WT/F lines were cultured in DMEM containing 1000 mg/L glucose supplemented with 5% FBS and 1% pen/strep. The mHypoE-41, mHypoE-38, and mHypoA-59 cell lines were cultured in DMEM containing 4500 mg/L glucose supplemented with 2% FBS and 1% pen/strep. The mHypoA-POMC/GFP-2 line was cultured in DMEM containing 1000 mg/L glucose supplemented with 2% FBS and 1% pen/strep. […] Neuropeptide gene expression levels were determined by qRT-PCR.
For cell culture experiments, total RNA was isolated using PureLink RNA isolation kit (Thermofisher Scientific, Burlington, ON, Canada) according to the manufacturer's instruction with on column DNase step (PureLink DNAse kit) or DNase I treatment to remove genomic DNA. […] RNA quality and quantity were measured using Nanodrop 2000 and 500-1000 ng of complimentary DNA (cDNA) was synthesized with High Capacity cDNA Reverse Transcription kit (Applied biosystems, Thermofisher Scientific). […] Data was analyzed using […] and normalized to reference gene, either 60S ribosomal protein L7 (Rpl7) or Histone 3a (His).

[3] = system: mHypoA-Bmal1-WT/F cell line; test: Gene expression by qRT-PCR in mHypoA-Bmal1-WT/F hypothalamic cell line; type: cell-based, mouse; conditions: 100 μM BAP, 16 hr
Experimental: Hypothalamic neurons from embryonic and adult mice were previously immortalized to generate the clonal cell lines mHypoE-46, mHypoE-44, mHypoE-41, mHypoE-38, mHypoA-59, a FAC-sorted POMC/GFP mouse-derived cell line, mHypoA-POMC/GFP-2, and a mixed culture mHypoA-Bmal1-WT/F cell line (6, 13, 14). The mHypoE-46, mHypoE-44, and mHypoA-Bmal1-WT/F lines were cultured in DMEM containing 1000 mg/L glucose supplemented with 5% FBS and 1% pen/strep. The mHypoE-41, mHypoE-38, and mHypoA-59 cell lines were cultured in DMEM containing 4500 mg/L glucose supplemented with 2% FBS and 1% pen/strep. The mHypoA-POMC/GFP-2 line was cultured in DMEM containing 1000 mg/L glucose supplemented with 2% FBS and 1% pen/strep. All cells were maintained in 5% CO2 at 37° C. BAP was initially dissolved in DMSO solvent (vehicle control) to achieve 1000x the intended dose. The BAP solution was then diluted 1:1000 with the growth media used for the cell line. For co-treatment experiments, the vehicle control for ATP, UDP, and PKI was water, and for the H89 PKA inhibitor was DMSO. Neuropeptide gene expression levels were determined by qRT-PCR.
For cell culture experiments, total RNA was isolated using PureLink RNA isolation kit (Thermofisher Scientific, Burlington, ON, Canada) according to the manufacturer's instruction with on column DNase step (PureLink DNAse kit) or DNase I treatment to remove genomic DNA. […] RNA quality and quantity were measured using Nanodrop 2000 and 500-1000 ng of complimentary DNA (cDNA) was synthesized with High Capacity cDNA Reverse Transcription kit (Applied biosystems, Thermofisher Scientific). Quantitative reverse transcription polymerase chain reaction (RT-qPCR) was performed with 12.5 ng of cDNA amplified with Platinum SYBR green qPCR SuperMix-UDG with ROX on an Applied Biosystems Prism 7900HT or PowerTrack Green Master Mix on an Applied Biosystems QuantStudio 5 and gene specific primers as per manufacturer's instructions (Table 1). Data was analyzed using […] and normalized to reference gene, either 60S ribosomal protein L7 (Rpl7) or Histone 3a (His).

[4] = system: AMPK; test: AMPK phosphorylation by Western blot in mHypoE-46; type: cell-based, mouse; conditions: 100 μM BAP, 15 min, mHypoE-46
Experimental: mHypoE-46 cells were serum starved in 5.5 mM glucose (LG) DMEM for 1 hour prior to treatment with vehicle (0.1% DMSO), 100 µM BAP or H20, […] 5-Aminoimidazole-4-carboxamide ribonucleotide (AICAR) or 0 mM glucose DMEM. Protein was harvested using 1× cell lysis buffer (Cell Signaling Technologies, Inc, CST) containing protease and phosphatase inhibitors. A total of 30 μg protein was separated on a 12% SDS-polyacrylamide gels and transferred onto PVDF membranes. Membranes were blocked in 5% milk dissolved in Tris-buffered saline with Tween 20 (TBS-T) for 1 h and incubated with primary antibody overnight at 4° C. phospho-AMPKα (Thr172; cat. 2532S, CST), and total AMPKα (cat. 2535S, CST); phospho-p70-S6K (Thr389; cat. 9205S, CST) and total p70-S6K (cat. 9202S, CST); insulin receptor ß (cat. 3025S, CST); phospho-AKT (Ser473; cat. 9271S, CST) and total AKT (cat. 9272S, CST); phospho-ERK1/2 (Thr202/Tyr204; cat. 9101, CST) and total ERK (cat. 4695, CST) were diluted 1:1000 in 5% milk in TBS-T. Membranes were washed and incubated with secondary HRP-linked antirabbit antibody (1:7500 in 5% milk in TBS-T, CST) for 1 h, washed, and imaged using the Signal Fire ECL Reagent (CST) on the iBright 1500 Imaging System (Thermofisher). Protein density was quantified using ImageJ or the iBright Imaging System.

c1ccc(CNc2ncnc3nc[nH]c23)cc1 [BAP, N6-benzylaminopurine]
initial body weight loss ([1]; female CD-1, 60% HFD, 10 mM BAP in drinking water (189 mg/kg/day), after 9 days of exposure): 9% | body weight less than control group on same diet at end ([1]; female CD-1, 60% HFD, 10 mM BAP in drinking water, 33 days): 3 g | initial body weight loss ([1]; female CD-1, sucrose-matched control diet, 10 mM BAP in drinking water (129.9 mg/kg/day), after 3 days, quickly regained): 5% | body weight as percentage of starting weight vs vehicle control ([1]; female CD-1, sucrose-matched control diet, 10 mM BAP in drinking water, 33 days): not reduced | peak body weight loss ([1]; male CD-1, 60% HFD, 10 mM BAP in drinking water (200 mg/kg/day), peak after 13 days of exposure): 18% | body weight difference, control heavier than BAP group at end of experimental period ([1]; male CD-1, 60% HFD, 10 mM BAP in drinking water, 33 days): 11 grams | peak body weight loss ([1]; male CD-1, sucrose-matched control diet, 10 mM BAP in drinking water (157 mg/kg/day), peak after 12 days): 9% | body weight lighter than non-BAP control at end of experimental period ([1]; male CD-1, sucrose-matched control diet, 10 mM BAP in drinking water, 33 days): 4 g | Agrp mRNA expression [2]: increased | Npy mRNA expression [2]: no effect | Agrp mRNA expression [3]: increased | Npy mRNA expression [3]: supressed | Pomc expression [3]: significantly induced | AMPK phosphorylation or activation vs vehicle [4]: significant decrease
